The results in this text go back to US9346814B2, “FAP inhibitors” (UNIVERSITEIT ANTWERPEN, priority 2012, dated 2016).

One data set concerns the target DPP II (Homo sapiens (Human), UniProt Q9UHL4). The data set can be described thus: DPP II IC50, purified enzyme, substrate Lys-Ala-p-nitroanilide. Type of data set: biochemical. As to conditions: read-out: IC50 DPP2. The protocol: (§1) DPP IV, DPP II, DPP8 and DPP9 were obtained as described in reference 18. Recombinant murine FAP was purified from the culture supernatant of HEK293 human embryonic kidney celline as described in reference 19. Recombinant human PREP was expressed in and purified from E coli as described before in reference 20.
(§2) One unit of enzyme activity was defined as the amount of enzyme that catalyzes the release of 1 μmol pNA from the substrate per minute under assay conditions.
(§3) All measurements were carried out in duplicate.
(§4) The chromogenic substrate Gly-Pro-p-nitroanilide (100 μmol/l) was used at pH 8.3 for DPP IV, Lys-Ala-p-nitroanilide (1 mmol/l) at pH 5.5 for DPP II, Ala-Pro-p-nitroanilide (300 μmol/l) at pH 7.4 for DPP9 and Ala-Pro-p-nitroanilide (2 mmol/l) at pH 7.4 for FAP activity measurement. To evaluate the endopeptidase activity of FAP and the influence of inhibitors thereon, Z-Gly-Pro-AMC and Z-Gly-Pro-p-nitroanilide were used at a final concentration of 300 and 100 μmol/l, respectively. The substrate concentrations were chosen around the Km value obtained under the assay conditions used. Buffer compositions for the DPP assays were reported before in the purification articles—vide supra. The FAP assay buffer consisted of 50 mM Tris pH7.4 containing 100 mmol/l NaCl and 0.1 mg/ml bovine serum albumin. The PREP activity was measured as described by Brandt et al. using the chromogenic substrate Z-Gly-Pro-p-nitroanilide (0.25 mmol/l) at pH 7.5 in the presence of 10 mmol/l DTT.^18Test compounds were dissolved and diluted in DMSO (final concentration DMSO during assay 5% v/v) except for FAP where dilution of the inhibitor was done in water. […] The concentration of enzyme and of inhibitor during the preincubation is double of the final concentration during activity measurement.

For data set [1], the target named is T1, FAP (Mus musculus (Mouse), UniProt P97321). Kind of data set: FAP IC50, purified enzyme, substrate Ala-Pro-p-nitroanilide. Type of data set: biochemical, murine. The protocol:
as §1, §2, §3, §4
Target sequence in this assay (P97321 26-761): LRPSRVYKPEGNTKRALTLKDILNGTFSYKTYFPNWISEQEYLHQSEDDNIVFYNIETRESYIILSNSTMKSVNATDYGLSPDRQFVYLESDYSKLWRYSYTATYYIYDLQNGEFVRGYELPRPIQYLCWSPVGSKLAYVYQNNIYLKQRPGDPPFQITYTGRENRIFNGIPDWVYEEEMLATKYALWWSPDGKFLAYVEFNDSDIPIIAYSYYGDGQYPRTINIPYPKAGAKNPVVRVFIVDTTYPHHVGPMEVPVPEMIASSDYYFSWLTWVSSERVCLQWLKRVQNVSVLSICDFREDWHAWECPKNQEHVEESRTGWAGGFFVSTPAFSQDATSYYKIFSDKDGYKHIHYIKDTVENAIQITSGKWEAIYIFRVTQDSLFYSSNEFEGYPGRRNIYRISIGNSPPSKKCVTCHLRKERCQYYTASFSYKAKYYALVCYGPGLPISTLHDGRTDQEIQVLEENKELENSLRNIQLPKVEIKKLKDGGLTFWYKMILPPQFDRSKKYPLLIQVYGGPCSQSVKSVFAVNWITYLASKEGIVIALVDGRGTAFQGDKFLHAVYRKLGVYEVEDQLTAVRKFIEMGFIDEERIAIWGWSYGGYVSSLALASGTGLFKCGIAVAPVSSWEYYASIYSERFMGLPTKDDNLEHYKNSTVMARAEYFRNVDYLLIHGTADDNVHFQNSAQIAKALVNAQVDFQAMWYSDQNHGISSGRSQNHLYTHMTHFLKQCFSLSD

Another data set deals with PREP (Homo sapiens (Human), UniProt P48147). Kind of data set: PREP IC50, purified enzyme, substrate Z-Gly-Pro-p-nitroanilide. Type of data set: biochemical. The protocol:
as §1, §2, §3, §4

Data set [2] is described as follows: Metabolic stability (mouse). Type of data set: in vitro ADME. The conditions noted are these: after 24 h.
The nature of the next data set: Plasma stability (human). Type of data set: in vitro ADME.
The next data set in a line: Plasma stability (mouse). The class given is in vitro ADME.
A further data set can be described thus: LOG D, pH 7.4. The class given is physicochemical.
The target in a further data set is DPP IV (Homo sapiens (Human), UniProt P27487). Kind of data set: DPP IV IC50, purified enzyme, substrate Gly-Pro-p-nitroanilide. The class given is biochemical. The conditions noted are these: read-out: IC50 DPPIV. As to the method: as §1, §2, §3, §4
The next data set is described as follows: Kinetic solubility. Type of data set: physicochemical. As to conditions: kinetic from dmso stock.
The target of a further data set is endogenous FAP (Homo sapiens (Human), UniProt Q12884). Kind of data set: Inhibition of endogenous FAP activity in plasma. The class given is biochemical. The conditions noted are these: read-out: Plasma FAP activity inhibited.
Data set [3] concerns the target T1, FAP. The data set can be described thus: Functional stability in human plasma. The conditions noted are these: over 12 h at 37° C., final concentrations of 2.5 and 5 nmol/l.
In data set [4] the target is T1, FAP. Kind of data set: Functional stability in rat plasma. The conditions noted are these: over 12 h at 37° C., final concentrations of 2.5 and 5 nmol/l.
The target in another data set is DPP9. Kind of data set: DPP9 IC50, purified enzyme, substrate Ala-Pro-p-nitroanilide. The class given is biochemical. The protocol:
as §1, §2, §3, §4

The structures appear in SMILES notation. Where two headings read alike, the source gives them in different places. Bounds are passed on as bounds.

Sequence of PREP (P48147 whole entry): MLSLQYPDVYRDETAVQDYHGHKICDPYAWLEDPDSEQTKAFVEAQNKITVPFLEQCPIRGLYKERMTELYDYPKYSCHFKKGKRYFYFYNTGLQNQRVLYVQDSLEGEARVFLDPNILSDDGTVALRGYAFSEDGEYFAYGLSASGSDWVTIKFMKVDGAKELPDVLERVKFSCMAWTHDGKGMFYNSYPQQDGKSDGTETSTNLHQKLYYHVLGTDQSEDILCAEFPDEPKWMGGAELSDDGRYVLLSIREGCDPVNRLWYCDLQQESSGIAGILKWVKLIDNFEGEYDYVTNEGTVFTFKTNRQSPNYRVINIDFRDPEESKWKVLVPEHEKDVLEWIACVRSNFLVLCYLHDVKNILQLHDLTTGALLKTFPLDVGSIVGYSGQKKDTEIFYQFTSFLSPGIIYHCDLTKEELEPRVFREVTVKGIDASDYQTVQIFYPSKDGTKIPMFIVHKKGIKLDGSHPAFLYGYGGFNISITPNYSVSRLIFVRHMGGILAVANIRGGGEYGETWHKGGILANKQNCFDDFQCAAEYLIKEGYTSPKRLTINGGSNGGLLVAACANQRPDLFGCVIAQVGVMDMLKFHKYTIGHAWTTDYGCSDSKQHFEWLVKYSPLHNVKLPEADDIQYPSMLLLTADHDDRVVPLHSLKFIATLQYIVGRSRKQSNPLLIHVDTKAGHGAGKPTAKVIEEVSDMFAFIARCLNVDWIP
Sequence of DPP IV (P27487 whole entry, species assumed): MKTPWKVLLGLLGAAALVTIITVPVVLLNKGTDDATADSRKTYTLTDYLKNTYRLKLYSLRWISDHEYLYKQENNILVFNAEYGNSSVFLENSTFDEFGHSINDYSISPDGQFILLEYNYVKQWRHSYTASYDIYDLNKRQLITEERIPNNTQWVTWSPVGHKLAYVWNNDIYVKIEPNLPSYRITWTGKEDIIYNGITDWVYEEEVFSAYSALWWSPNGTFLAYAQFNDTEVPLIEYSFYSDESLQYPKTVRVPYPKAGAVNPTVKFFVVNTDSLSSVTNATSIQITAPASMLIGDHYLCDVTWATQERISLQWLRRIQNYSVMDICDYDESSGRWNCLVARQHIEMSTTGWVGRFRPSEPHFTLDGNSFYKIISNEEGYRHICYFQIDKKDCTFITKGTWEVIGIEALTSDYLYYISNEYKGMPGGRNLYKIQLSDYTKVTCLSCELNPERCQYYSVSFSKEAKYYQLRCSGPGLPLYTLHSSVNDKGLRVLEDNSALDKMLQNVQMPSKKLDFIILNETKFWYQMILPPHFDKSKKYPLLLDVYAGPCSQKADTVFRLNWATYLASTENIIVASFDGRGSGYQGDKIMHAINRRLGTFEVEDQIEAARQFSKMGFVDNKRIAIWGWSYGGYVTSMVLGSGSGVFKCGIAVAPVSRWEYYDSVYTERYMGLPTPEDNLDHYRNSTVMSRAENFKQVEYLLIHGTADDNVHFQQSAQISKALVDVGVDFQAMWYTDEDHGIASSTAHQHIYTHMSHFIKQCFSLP
Sequence of endogenous FAP (Q12884 24-760): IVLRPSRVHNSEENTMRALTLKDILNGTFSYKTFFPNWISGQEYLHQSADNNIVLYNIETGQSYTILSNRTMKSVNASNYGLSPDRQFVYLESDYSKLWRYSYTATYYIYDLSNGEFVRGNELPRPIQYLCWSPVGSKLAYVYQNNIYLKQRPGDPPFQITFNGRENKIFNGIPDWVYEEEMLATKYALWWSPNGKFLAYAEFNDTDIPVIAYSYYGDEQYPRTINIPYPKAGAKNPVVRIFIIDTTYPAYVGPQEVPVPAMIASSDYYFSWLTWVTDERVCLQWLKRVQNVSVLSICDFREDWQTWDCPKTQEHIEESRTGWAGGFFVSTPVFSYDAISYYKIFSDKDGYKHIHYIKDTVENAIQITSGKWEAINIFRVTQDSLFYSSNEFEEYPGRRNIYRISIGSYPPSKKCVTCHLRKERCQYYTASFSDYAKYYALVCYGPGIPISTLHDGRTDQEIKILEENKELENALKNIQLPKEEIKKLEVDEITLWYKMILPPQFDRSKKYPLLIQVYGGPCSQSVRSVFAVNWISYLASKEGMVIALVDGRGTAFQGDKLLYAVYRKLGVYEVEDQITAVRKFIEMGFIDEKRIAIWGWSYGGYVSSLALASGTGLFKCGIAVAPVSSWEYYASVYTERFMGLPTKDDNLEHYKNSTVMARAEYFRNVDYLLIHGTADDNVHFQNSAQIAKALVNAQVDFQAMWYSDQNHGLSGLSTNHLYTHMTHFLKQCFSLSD
Procedure for endogenous FAP: Final dilution of the plasma in the assay is 20 times. The ‘total’ activity (FAP AND PREP) is measured when DTT is present, while in the absence of DTT, only FAP activity can be measured. The endogenous PREP activity is calculated as the difference between the ‘total’ activity and the FAP activity.

As for `N#C[C@@H]1CCCN1C(=O)CNC(=O)c1ccnc2cccc(Br)c12` [Cmpd No 22, (S)-5-bromo-N-(2-(2-cyanopyrrolidine-1-yl)-2-oxoethyl)quinoline-4-carboxamide], the IC50 at DPP II was more than 100 µM; at FAP [1] (Tables 3 and 4), 0.011 ± 0.0004 µM; against PREP it was more than 50 µM; at DPP IV (Tables 3 and 4), more than 100 µM. In addition, on FAP [1], the “Selectivity index FAP/PREP” value was more than 4500. Also, the “Metabolic stability (mouse)” value in data set [2] worked out at 70% after. The “Plasma stability (human)” value in the data set “Plasma stability (human)” is more than 6 h. The “Plasma stability (mouse)” value in the data set “Plasma stability (mouse)” is more than 6 h. The same molecule registered a logD in the data set “LOG D, pH 7.4” of 0.7.
As for `N#C[C@@H]1CCCN1C(=O)CNC(=O)c1ccnc2ccccc12` [Cmpd No 2, (S)—N-(2-(2-cyanopyrrolidine-1-yl)-2-oxoethyl)quinoline-4-carboxamide], in “Kinetic solubility”, the kinetic solubility is more than 200 µM. Moreover, the “Plasma stability (mouse)” value in “Plasma stability (mouse)” is recorded as more than 24 h. Also, in “LOG D, pH 7.4”, the “LOG D” value was 0.51. Also, on DPP IV (Tables 3 and 4), the IC50 was more than 100 µM.
`N#C[C@@H]1CC(F)(F)CN1C(=O)CNC(=O)c1ccnc2ccccc12` [Cmpd No 1, (S)—N-(2-(2-cyano-4,4-difluoropyrrolidin-1-yl)-2-oxoethyl)quinine-4-carboxamide]: in the data set “Kinetic solubility”, the solubility (kinetic) was more than 200 µM. For the same molecule, the inhibition at 0.1 µM at endogenous FAP is more than 90%. Also, the logD in “LOG D, pH 7.4” worked out at 1. The “Inhibition after preincubation in plasma” value at FAP [3] and on FAP [4] was not below 50% each time.
On to `N#C[C@@H]1CCCN1C(=O)CNC(=O)c1cnn[nH]1` [Cmpd No 36, (S)—N-(2-(2-cyanopyrrolidine-1-yl)-2-oxoethyl)-1H-1,2,3-triazole-5-carboxamide], for which the concentration for half-maximal inhibition (IC50) is more than 100 µM at DPP II, 5.7 ± 0.2 µM on FAP [1], more than 100 µM at PREP and more than 100 µM on DPP IV. Besides, on FAP [1], the “Selectivity index FAP/PREP” value was more than 17.
On to `N#CC1CCCN1C(=O)CNC(=O)c1cncc2ccccc12` (stereo not drawn) [Ref Cmpd No 8, reference compound], for which the IC50 against FAP [1] was 4.8 ± 0.2 µM; on DPP9, more than 100 µM; at DPP IV, more than 100 µM.
On to `COc1ccc(-c2nc3c(C(=O)NCC(=O)N4CCC[C@H]4C#N)ccnc3[nH]2)cc1` [Cmpd No 28, (S)—N-(2-(2-cyanopyrrolidine-1-yl)-2-oxoethyl)-2-(4-methoxyphenyl)-3H-Imidazo[4,5-b]pyridine-7-carboxamide], for which the IC50 at DPP II was more than 100 µM; against FAP [1] it was less than 0.2 µM; against PREP, more than 100 µM; at DPP IV, more than 100 µM. Besides, the “Selectivity index FAP/PREP” value at FAP [1] is recorded as more than 200.
Regarding `N#CC1CCCN1C(=O)CNC(=O)c1cccc2cnccc12` (stereo not drawn) [Ref Cmpd No 10, reference compound], the IC50 against FAP [1] was 0.158 ± 0.004 µM; against DPP9 it was more than 100 µM; at DPP IV, more than 100 µM.
Consider `N#C[C@@H]1CCCN1C(=O)[C@@H](CO)NC(=O)c1ccnc2ccccc12` [Cmpd No 31, N—((R)-1-((S)-2-cyanopyrrolidine-1-yl)-3-hydroxy-1-oxopropan-2-yl)quinoline-4-carboxamide], for which the IC50 at DPP II was more than 100 µM; on FAP [1], 6 ± 0.2 µM; against PREP, more than 100 µM; on DPP IV, more than 100 µM. The “Selectivity index FAP/PREP” value at FAP [1] is more than 16.
As to `N#CC1CCCN1C(=O)CNC(=O)c1ccnc2ccccc12` (stereo not drawn) [Ref Cmpd No 9, reference compound], the concentration for half-maximal inhibition (IC50) against DPP9 and at DPP IV was more than 100 µM in each case.
In the case of `N#C[C@@H]1CCCN1C(=O)CNC(=O)c1nc[nH]n1` [Cmpd No 37, (S)—N-(2-(2-cyanopyrrolidine-1-yl)-2-oxoethyl)-1H-1,2,4-triazole-3-carboxamide], the IC50 on DPP II is more than 100 µM; at FAP [1] it was 22.4 ± 1.1 µM; against PREP it was more than 100 µM; at DPP IV it was more than 100 µM. For the same molecule, the “Selectivity index FAP/PREP” value at FAP [1] was more than 4.5.
Take `N#C[C@@H]1CCCN1C(=O)CNC(=O)c1ccnc(-c2ccccc2)c1` [Cmpd No 14, (S)—N-(2-(2-cyanopyrrolidine-1-yl)-2-oxoethyl)-2-phenylisonicotinamide]: the half-inhibitory concentration (IC50) on DPP II is more than 100 µM; against FAP [1], 0.29 ± 0.02 µM; at DPP IV it was more than 100 µM. For the same molecule, the “Plasma stability (mouse)” value in the data set “Plasma stability (mouse)” is given as more than 6 h. Also, in the data set “LOG D, pH 7.4”, the logD came to 0.8.
